# Assay results published in patent US20040127446A1 (priority 1992, published 2004).
# System: plus strand HCV RNA
# Type: biochemical, Hepatitis C virus
# Conditions: plus strand (+) HCV site, 50 mM Tris-Cl, pH 8.0, 40 mM Mg2+ at 37°, trace substrate, enzymatic nucleic acid concentration of 500 nM or greater
row,Substance,% Substrate Cleaved in 3 hours [%]
1,22973 (AGGUGAAGGCTAGCTACAACGAAGCUGAGN; 3' inverted abasic cap (B); Description of Artificial Sequence: Nucleic Acid; misc_feature (30)..(30): n stands for inverted deoxyabasic derivative; misc_feature (1)..(7): 2'-O-Methyl; misc_feature (23)..(29): 2'-O-Methyl) [compound 22973],83.15
2,22974 (CUGGUGAGGCTAGCTACAACGAGGAGGCUN; 3' inverted abasic cap (B); misc_feature (30)..(30): n stands for inverted deoxyabasic derivative; misc_feature (1)..(7): 2'-O-Methyl; misc_feature (23)..(29): 2'-O-Methyl) [compound 22974],57.82
3,22975 (UGGUGUAGGCTAGCTACAACGAGCGUUGAN; 3' inverted abasic cap (B); Description of Artificial Sequence: Nucleic Acid; misc_feature (30)..(30): n stands for inverted deoxyabasic derivative; misc_feature (1)..(7): 2'-O-Methyl; misc_feature (23)..(29): 2'-O-Methyl) [compound 22975],75.77
